The source made the active and inactive calls. The rule behind the calls is not given here.
Experiments:
[1] = biological target: Insulin-like growth factor 1 receptor (Homo sapiens) (UniProt P08069); experiment: Inhibition of human recombinant IGF1R at 100 nM by [gamma-33ATP] radiometric assay relative to control
[2] = species on record: Homo sapiens; experiment: Inhibition of human recombinant Erk at 100 nM measured in presence of [33P]-ATP by radiometric analysis relative to control
[3] = biological target: Protein-tyrosine kinase 2-beta (Homo sapiens) (UniProt Q14289); experiment: Inhibition of recombinant human full length PYK2 at 100 nM in presence of [gamma32P]-ATP by radiometric analysis relative to control
Protein-tyrosine kinase 2-beta (Homo sapiens), sequence (Q14289 whole entry, looked up): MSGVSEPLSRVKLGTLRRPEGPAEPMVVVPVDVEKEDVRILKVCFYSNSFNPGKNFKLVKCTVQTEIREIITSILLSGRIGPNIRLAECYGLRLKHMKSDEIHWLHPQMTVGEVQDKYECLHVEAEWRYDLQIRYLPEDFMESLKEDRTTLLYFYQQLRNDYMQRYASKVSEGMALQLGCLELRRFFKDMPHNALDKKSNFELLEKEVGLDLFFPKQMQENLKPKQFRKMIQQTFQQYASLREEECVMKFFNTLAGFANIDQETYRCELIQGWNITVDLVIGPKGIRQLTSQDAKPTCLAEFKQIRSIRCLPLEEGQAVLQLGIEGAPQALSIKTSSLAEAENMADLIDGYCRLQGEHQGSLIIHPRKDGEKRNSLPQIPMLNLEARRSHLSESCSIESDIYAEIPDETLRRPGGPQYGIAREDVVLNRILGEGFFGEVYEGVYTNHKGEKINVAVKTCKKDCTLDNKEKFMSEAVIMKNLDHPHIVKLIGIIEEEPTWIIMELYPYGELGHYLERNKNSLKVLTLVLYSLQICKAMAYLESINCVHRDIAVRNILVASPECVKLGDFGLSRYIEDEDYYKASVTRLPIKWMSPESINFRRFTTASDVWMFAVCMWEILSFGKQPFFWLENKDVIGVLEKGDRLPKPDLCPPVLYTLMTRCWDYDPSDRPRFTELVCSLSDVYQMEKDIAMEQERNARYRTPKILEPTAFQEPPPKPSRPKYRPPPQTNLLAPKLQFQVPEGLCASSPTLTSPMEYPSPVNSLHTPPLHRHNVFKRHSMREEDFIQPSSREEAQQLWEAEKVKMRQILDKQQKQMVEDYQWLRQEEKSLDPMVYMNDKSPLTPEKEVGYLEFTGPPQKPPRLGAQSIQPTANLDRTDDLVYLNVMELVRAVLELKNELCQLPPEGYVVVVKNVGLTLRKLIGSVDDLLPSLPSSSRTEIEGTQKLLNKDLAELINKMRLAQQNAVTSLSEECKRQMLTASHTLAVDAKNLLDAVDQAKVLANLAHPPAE

[4] = biological target: Insulin receptor (Homo sapiens) (UniProt P06213); experiment: Inhibition of human recombinant IR at 100 nM by [gamma-33ATP] radiometric analysis relative to control
Insulin receptor (Homo sapiens), sequence (P06213 28-758 limits assumed): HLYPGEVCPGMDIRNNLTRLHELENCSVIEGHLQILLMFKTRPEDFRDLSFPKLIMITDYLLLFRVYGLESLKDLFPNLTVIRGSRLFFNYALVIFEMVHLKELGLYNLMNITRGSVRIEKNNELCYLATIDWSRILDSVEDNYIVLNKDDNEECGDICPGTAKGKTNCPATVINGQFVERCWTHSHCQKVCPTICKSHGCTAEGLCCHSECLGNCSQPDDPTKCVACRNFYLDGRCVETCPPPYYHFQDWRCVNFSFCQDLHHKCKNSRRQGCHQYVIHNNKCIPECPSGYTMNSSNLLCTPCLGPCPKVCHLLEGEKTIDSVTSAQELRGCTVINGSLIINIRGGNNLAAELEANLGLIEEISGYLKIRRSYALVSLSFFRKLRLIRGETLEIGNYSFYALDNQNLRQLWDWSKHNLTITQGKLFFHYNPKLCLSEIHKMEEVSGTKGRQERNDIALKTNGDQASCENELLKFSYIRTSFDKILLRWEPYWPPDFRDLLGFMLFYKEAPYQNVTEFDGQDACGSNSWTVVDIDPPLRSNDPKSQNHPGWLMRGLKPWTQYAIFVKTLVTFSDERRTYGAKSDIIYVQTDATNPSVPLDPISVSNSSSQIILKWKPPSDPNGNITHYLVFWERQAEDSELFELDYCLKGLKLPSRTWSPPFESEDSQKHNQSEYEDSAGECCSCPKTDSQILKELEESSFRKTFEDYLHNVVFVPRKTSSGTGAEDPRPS
Insulin receptor (Homo sapiens), sequence (P06213 763-1382 limits assumed): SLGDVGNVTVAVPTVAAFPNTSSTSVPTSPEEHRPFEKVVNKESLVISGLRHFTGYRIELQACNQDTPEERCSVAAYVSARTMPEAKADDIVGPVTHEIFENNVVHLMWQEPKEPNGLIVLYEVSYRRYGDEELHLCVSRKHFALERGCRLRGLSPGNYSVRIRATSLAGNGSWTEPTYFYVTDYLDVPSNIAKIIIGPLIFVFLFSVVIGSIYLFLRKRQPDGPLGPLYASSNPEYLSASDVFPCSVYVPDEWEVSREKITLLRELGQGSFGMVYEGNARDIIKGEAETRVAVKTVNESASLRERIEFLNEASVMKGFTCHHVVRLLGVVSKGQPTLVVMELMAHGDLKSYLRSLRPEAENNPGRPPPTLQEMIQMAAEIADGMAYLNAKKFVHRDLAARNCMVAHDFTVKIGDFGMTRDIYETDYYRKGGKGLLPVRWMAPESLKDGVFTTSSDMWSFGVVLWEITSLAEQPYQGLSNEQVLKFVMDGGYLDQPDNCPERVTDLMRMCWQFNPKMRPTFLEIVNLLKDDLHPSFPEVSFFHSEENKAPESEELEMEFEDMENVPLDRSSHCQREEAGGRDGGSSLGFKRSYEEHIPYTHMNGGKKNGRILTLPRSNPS

[5] = biological target: Fibroblast growth factor receptor 1 (Homo sapiens) (UniProt P11362); experiment: Inhibition of human recombinant FGFR1 (456 to 765 residues) at 100 nM in presence of [gamma33P]ATP by radiometric assay relative to control
[6] = biological target: Proto-oncogene tyrosine-protein kinase Src (Homo sapiens) (UniProt P12931); experiment: Inhibition of human recombinant Src at 100 nM in presence of [gamma33P]ATP by radiometric assay relative to control
Proto-oncogene tyrosine-protein kinase Src (Homo sapiens), sequence (P12931 2-536 limits assumed): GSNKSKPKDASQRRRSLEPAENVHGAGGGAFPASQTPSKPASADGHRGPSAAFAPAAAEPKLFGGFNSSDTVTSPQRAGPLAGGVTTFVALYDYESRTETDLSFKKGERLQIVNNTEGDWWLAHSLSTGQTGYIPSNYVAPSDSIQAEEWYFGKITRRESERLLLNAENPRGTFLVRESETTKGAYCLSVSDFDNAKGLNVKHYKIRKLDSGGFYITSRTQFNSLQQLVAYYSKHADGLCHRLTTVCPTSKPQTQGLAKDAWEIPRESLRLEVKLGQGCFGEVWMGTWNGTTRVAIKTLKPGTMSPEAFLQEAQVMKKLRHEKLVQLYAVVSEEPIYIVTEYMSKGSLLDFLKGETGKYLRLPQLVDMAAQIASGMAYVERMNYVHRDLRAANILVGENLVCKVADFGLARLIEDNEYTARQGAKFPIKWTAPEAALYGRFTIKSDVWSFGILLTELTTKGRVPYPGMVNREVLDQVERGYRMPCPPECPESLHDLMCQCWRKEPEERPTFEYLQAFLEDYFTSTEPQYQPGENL

[7] = biological target: T1, Serine/threonine-protein kinase AKT (Homo sapiens) (UniProt P31751+Q9Y243+P31749); experiment: Inhibition of human Akt at 100 nM in presence of [33P]-ATP by radiometric analysis relative to control; format: protein assay
[8] = biological target: T2, Focal adhesion kinase 1 (Homo sapiens, UniProt Q05397); experiment: Inhibition of human recombinant FAK at 100 nM by [gamma32P]-ATP radiometric analysis relative to control
[9] = biological target: T2, Focal adhesion kinase 1; experiment: Inhibition of recombinant human N-terminal His-tagged FAK (393 to 698 residues) expressed in baculovirus infected Sf9 insect cells using Poly (4:1 Glu, Tyr) as substrate measured after 1 hr by ADP-glo luminescence assay
Target sequence in this assay (Q05397 whole entry, the tested form may be a part): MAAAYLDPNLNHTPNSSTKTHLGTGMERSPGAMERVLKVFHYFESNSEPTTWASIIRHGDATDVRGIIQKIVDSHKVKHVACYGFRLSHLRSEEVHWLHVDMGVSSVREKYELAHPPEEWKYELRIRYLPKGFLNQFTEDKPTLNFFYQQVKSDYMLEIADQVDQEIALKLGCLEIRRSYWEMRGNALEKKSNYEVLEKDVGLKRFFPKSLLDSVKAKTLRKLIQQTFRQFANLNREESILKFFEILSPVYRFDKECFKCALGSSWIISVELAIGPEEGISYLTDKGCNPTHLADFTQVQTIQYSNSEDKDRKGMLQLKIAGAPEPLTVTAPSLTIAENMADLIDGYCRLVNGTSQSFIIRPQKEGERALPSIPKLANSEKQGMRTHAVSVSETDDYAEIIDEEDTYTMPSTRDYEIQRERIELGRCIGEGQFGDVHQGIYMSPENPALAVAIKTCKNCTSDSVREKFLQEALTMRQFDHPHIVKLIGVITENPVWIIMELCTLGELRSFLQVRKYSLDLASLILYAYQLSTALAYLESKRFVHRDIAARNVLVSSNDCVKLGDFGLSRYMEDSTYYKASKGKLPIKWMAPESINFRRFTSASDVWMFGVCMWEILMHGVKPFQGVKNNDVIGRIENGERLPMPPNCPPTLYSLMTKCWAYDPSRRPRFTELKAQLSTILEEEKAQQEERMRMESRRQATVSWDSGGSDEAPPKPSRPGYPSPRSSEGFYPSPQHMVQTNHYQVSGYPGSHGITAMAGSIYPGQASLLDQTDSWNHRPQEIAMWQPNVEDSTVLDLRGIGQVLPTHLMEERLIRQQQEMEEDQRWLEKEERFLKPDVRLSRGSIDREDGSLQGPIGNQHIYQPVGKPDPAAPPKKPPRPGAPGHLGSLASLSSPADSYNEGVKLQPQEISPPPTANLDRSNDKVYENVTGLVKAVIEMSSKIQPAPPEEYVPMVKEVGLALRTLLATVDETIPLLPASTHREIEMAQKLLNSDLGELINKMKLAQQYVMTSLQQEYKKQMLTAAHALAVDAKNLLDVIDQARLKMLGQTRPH

[10] = biological target: Mast/stem cell growth factor receptor Kit (Homo sapiens) (UniProt P10721); experiment: Inhibition of human recombinant c-kit at 100 nM in presence of [gamma33P]ATP by radiometric assay relative to control
[11] = biological target: Platelet-derived growth factor receptor alpha (Homo sapiens) (UniProt P16234); experiment: Inhibition of human recombinant PDGFRA at 100 nM by [gamma-33ATP] radiometric assay relative to control
Platelet-derived growth factor receptor alpha (Homo sapiens), sequence (P16234 whole entry): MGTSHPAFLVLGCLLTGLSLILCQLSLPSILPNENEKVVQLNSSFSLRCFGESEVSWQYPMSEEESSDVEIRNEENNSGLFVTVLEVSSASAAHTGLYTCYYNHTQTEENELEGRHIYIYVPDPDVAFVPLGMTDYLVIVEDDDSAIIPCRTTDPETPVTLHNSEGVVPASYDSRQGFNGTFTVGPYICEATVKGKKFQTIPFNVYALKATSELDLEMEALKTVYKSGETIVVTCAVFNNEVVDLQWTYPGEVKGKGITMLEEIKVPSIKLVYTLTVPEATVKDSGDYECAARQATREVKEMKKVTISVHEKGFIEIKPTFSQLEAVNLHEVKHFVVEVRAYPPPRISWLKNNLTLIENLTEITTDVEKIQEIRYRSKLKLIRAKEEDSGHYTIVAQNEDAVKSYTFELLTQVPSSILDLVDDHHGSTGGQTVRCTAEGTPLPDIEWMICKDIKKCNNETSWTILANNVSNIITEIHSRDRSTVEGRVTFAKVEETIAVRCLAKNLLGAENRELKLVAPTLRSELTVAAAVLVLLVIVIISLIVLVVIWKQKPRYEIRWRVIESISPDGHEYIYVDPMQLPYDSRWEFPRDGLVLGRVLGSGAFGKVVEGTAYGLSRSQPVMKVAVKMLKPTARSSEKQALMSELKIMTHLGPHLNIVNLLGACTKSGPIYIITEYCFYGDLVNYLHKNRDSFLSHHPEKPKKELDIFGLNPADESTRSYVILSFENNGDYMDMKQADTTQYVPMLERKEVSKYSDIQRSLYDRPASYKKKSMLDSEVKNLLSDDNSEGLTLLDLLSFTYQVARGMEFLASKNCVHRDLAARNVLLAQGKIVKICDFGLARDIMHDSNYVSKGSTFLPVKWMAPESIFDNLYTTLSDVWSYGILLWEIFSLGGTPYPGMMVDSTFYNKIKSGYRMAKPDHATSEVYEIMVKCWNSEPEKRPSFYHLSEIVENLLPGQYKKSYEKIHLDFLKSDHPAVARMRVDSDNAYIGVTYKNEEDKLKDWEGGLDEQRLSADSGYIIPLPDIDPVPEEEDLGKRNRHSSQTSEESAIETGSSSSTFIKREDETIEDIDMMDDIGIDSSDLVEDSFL

[12] = biological target: Epidermal growth factor receptor (Homo sapiens) (UniProt P00533); experiment: Inhibition of human recombinant EGFR at 100 nM in presence of [gamma33P]ATP by radiometric assay relative to control
[13] = system: U-87 MG; experiment: Inhibition of cell adhesion in human U87MG cells assessed as increase in appearance of stress fiber at 1 uM incubated for 48 hrs by FITC-conjugated phalloidin and TO-PRO3 staining based microscopic analysis; format: functional; settings: U-87MG ATCC
[14] = system: U-87 MG; experiment: Induction of apoptosis in human U87MG cells assessed as necrotic cells at 10 uM incubated for 48 hrs by Annexin-V/propidium iodide staining based flow cytometric method (reference value: […]); format: functional, U-87MG ATCC
[15] = biological target: T2, Focal adhesion kinase 1; settings: U-87 MG, dose microM 0.1-10, time 48.0 hrs
[16] = system: U-87 MG; experiment: Induction of cell cycle arrest in human U87MG cells assessed as accumulation at S phase at 1 uM incubated for 48 hrs by propidium iodide staining based flow cytometry analysis (reference value: 19.5 %); format: functional, U-87MG ATCC
[17] = system: U-87 MG; experiment: Induction of cell cycle arrest in human U87MG cells assessed as multi-nucleated giant cells at 1 uM incubated for 48 hrs by TO-PRO-3 dye based immunocytochemistry analysis; format: functional; settings: U-87MG ATCC
[18] = biological target: T1, Serine/threonine-protein kinase AKT (Homo sapiens); experiment: Activation of AKT in human U87MG cells at 0.1 to 10 uM incubated for 48 hrs by Western blot analysis; format: cell-based; settings: U-87 MG, dose microM 0.1-10, time 48.0 hrs
[19] = system: U-251; experiment: Cytotoxicity against human U251 cells assessed as reduction in cell viability incubated for 48 hrs by MTT assay; settings: U-251, 48 h
[20] = biological target: T2, Focal adhesion kinase 1; settings: U-87 MG, dose microM 0.6-3, time 48.0 hrs
[21] = system: U-87 MG; experiment: Induction of apoptosis in human U87MG cells assessed as early apoptotic cells at 10 uM incubated for 48 hrs by Annexin-V/propidium iodide staining based flow cytometric method (reference value: 4.55 %); format: functional, U-87MG ATCC
[22] = system: U-87 MG; experiment: Induction of cellular senescence in human U87MG cells assessed as flat and enlarged cells at 1 uM incubated for 48 hrs by TO-PRO-3 dye based immunocytochemistry analysis; format: functional, cell-based; settings: U-87MG ATCC
[23] = system: U-87 MG; experiment: Induction of apoptosis in human U87MG cells assessed as live cells at 10 uM incubated for 48 hrs by Annexin-V/propidium iodide staining based flow cytometric method (reference value: 94.2%); format: functional, U-87MG ATCC
[24] = system: U-87 MG; experiment: Induction of cell cycle arrest in human U87MG cells assessed as accumulation at G0/G1 phase at 1 uM incubated for 48 hrs by propidium iodide staining based flow cytometry analysis (reference value: 51.6 +/- […]); format: functional, U-87MG ATCC
[25] = system: U-87 MG; experiment: Induction of apoptosis in human U87MG cells assessed as late apoptotic cells at 10 uM incubated for 48 hrs by Annexin-V/propidium iodide staining based flow cytometric method (reference value: […]); format: functional, U-87MG ATCC
[26] = system: A 172; experiment: Cytotoxicity against human A172 cells assessed as reduction in cell viability incubated for 48 hrs by MTT assay; settings: A 172, 48 h
[27] = system: U-87 MG; experiment: Induction of cell cycle arrest in human U87MG cells assessed as accumulation in G2/M phase at 1 uM incubated for 48 hrs by propidium iodide staining based flow cytometry analysis (reference value: 28.9 +/- 2.1 %); format: functional, U-87MG ATCC; settings: dose microM 1-10
[28] = biological target: T2, Focal adhesion kinase 1; settings: U-87 MG, dose microM 0.1-10, time 48.0 hrs; remark: listed apart in the source
[29] = biological target: T2, Focal adhesion kinase 1; experiment: Covalent inhibition of recombinant human N-terminal His-tagged FAK (393 to 698 residues) expressed in baculovirus infected Sf9 insect cells using Poly (4:1 Glu, Tyr) as substrate preincubated for 2 to 60 mins followed by substrate addition and measured after 1 hr by ADP-glo luminescence assay
Target sequence in this assay (Q05397 whole entry, the tested form may be a part): as the sequence (Q05397 whole entry, the tested form may be a part) above

[30] = system: U-87 MG; experiment: Activation of ERK in human U87MG cells at 0.1 to 10 uM incubated for 48 hrs by Western blot analysis; format: cell-based; settings: dose microM 0.1-10, time 48.0 hrs
[31] = system: U-87 MG; experiment: Induction of cell cycle arrest in human U87MG cells assessed as increase in accumulation at G2 phase at 1 uM incubated for 48 hrs by propidium iodide staining based flow cytometry analysis; format: functional; settings: U-87MG ATCC
[32] = biological target: T2, Focal adhesion kinase 1; settings: U-87 MG, dose microM 0.1-5, time 48.0 hrs
[33] = biological target: T2, Focal adhesion kinase 1; settings: U-87 MG, dose microM 0.1-5, time 48.0 hrs; remark: listed apart in the source
[34] = system: U-87 MG; experiment: Inhibition of cell migration in human U87MG cells assessed as reduction of cell mobility at 0.2 to 1 uM measured at 24 to 48 hrs by scratch wound assay; format: functional, cell-based; settings: U-87MG ATCC, dose microM 0.2-1, time hrs 24-48
[35] = biological target: T2, Focal adhesion kinase 1; settings: U-87 MG, dose microM 0.1-10, time 48.0 hrs; remark: listed apart in the source
[36] = system: U-87 MG; experiment: Cytotoxicity against human U-87 MG cells assessed as reduction in cell viability incubated for 48 hrs by MTT assay

SMILES	inhibition [1] [%]	inhibition [2] [%]	inhibition [3] [%]	inhibition [4] [%]	inhibition [5] [%]	inhibition [6] [%]	inhibition [13]	Activity [14] [%]	Activity [16] [%]	Activity [17]	IC50 [19] [nM]	Activity [21] [%]	Activity [22]	Activity [24] [%]	Activity [25] [%]	IC50 [26] [nM]	Activity [27] [%]	Activity [31]	inhibition [34]	IC50 [36] [nM]	further results
C=CC(=O)NCCNc1c(NCc2ccc(Nc3ncc(Cl)c(NCc4cccnc4N(C)S(C)(=O)=O)n3)cc2)c(=O)c1=O	28.1	4.1	68.3	15.1	32.5	17.9															inhibition [7]: 2.5%; inhibition [8]: 92.2%; IC50 [9]: 5.5 nM; inhibition [10]: 0%; inhibition [11]: 12.5%; inhibition [12]: 1.2%
CNC(=O)c1ccccc1Nc1nc(Nc2ccc(CNc3c(NCCNC(=O)/C(C#N)=C/C(C)C)c(=O)c3=O)cc2)ncc1Cl	71.9	4.3	97.5	32.4	83.5	31.1	Active	3.37	8.2	Active	9800	0	Active	12.7	0.21	1300	79.1	Active	Active	7100	inhibition [15]: Dose-dependent effect; Activity [18]: inactive; inhibition [20]: Dose-dependent effect; Activity [23]: 96.4%; inhibition [7]: 19.9%; inhibition [8]: 94.1%; IC50 [9]: 1.2 nM; inhibition [10]: 0%; inhibition [28]: Dose-dependent effect; inhibition [11]: 67.5%; Ki [29]: 0.47 nM; Activity [30]: inactive; inhibition [32]: Dose-dependent effect; inhibition [33]: inactive; inhibition [35]: Dose-dependent effect; inhibition [12]: 25.1%
CNC(=O)c1ccccc1Nc1nc(Nc2ccc(CNc3c(NCCNC(=O)/C(C#N)=C/C4CC4)c(=O)c3=O)cc2)ncc1Cl							Active	1.39	8.8	Active	1200	7.3	Active	8.1	4.06	890	83.1	Active	Active	7200	Activity [23]: 87.3%
C=CC(=O)NCCNc1c(NCc2ccc(Nc3ncc(C(F)(F)F)c(Nc4ccccc4C(=O)NC)n3)cc2)c(=O)c1=O	94.4	21.8	99.8	82.5	88.3	55.6	Active	1.1	11.2	Active	150	5.6	Active	13.7	3.85	130	75.1	Active	Active	3300	inhibition [20]: Dose-dependent effect; inhibition [7]: 25.1%; inhibition [8]: 98.6%; IC50 [9]: 6.8 nM; inhibition [10]: 0.1%; inhibition [11]: 78.4%; Ki [29]: 2.64 nM; inhibition [12]: 29%
CNC(=O)c1ccccc1Nc1nc(Nc2ccc(N3CCOCC3)cc2OC)ncc1Cl							Active	2.2	19.5	Active	6300	7.24	Active	16.2	2.45	8300	66.1	Active	Active	2900	inhibition [15]: Dose-dependent effect; inhibition [20]: Dose-dependent effect; Activity [23]: 88.1%; inhibition [28]: Dose-dependent effect; inhibition [33]: Active; inhibition [35]: Dose-dependent effect
